Source: ChEMBL document CHEMBL5154870, “Discovery of novel glutaminase 1 allosteric inhibitor with 4-piperidinamine linker and aromatic heterocycles” (Eur J Med Chem, 2022)

Experiments:
HCT-116 [1] = assay: Antiproliferative activity against human HCT-116 cells overexpressing GLS1 assessed as inhibition of cell proliferation measured after 72 hrs by MTT assay; type: functional, cell-based; conditions: HCT-116, 72 h
[2] = Metabolic stability in human liver microsomes assessed as intrinsic clearance at 10 uM by LC-MS/MS analysis; type: ADME, Microsome; conditions: read-out: CLH
[3] = Metabolic stability in human liver microsomes assessed as half life at 10 uM by LC-MS/MS analysis; type: ADME, Microsome
MDA-MB-436 = assay: Antiproliferative activity against human MDA-MB-436 cells overexpressing GLS1 assessed as inhibition of cell proliferation measured after 72 hrs by MTT assay; type: functional, cell-based; conditions: MDA-MB-436, 72 h
[4] = target: T1, Glutaminase kidney isoform, mitochondrial (Homo sapiens, UniProt O94925); assay: Allosteric inhibition of human GLS1 using glutamine as substrate incubated for 60 mins by NADH/NADPH-based absorbance analysis
T1 sequence (O94925 whole entry): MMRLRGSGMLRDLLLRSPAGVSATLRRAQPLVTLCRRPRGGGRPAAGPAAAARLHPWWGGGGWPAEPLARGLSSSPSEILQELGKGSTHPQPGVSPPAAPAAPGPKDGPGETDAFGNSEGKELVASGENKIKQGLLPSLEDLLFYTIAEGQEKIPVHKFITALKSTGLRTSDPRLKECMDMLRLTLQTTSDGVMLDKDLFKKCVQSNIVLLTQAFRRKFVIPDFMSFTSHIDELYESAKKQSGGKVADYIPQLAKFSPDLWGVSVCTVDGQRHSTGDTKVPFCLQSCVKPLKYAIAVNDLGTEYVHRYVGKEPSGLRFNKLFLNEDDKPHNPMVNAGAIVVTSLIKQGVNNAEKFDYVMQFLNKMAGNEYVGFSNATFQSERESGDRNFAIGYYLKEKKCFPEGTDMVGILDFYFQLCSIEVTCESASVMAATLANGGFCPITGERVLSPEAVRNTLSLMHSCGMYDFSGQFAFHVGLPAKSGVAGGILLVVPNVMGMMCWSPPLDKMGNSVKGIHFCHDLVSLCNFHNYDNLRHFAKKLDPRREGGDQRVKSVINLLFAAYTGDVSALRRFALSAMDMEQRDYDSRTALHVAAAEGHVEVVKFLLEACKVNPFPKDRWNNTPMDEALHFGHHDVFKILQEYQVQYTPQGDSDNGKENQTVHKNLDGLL

[5] = target: T1, Glutaminase kidney isoform, mitochondrial; assay: Binding affinity to human GLS1 assessed as dissociation constant by surface plasmon resonance analysis
[6] = Metabolic stability in human plasma assessed as parent compound remaining at 1 uM measured after 2 hrs by LC-MS/MS analysis; type: ADME, cell-free; conditions: read-out: Stability
[7] = target: T2, Glutaminase kidney isoform, mitochondrial (Homo sapiens) (UniProt O94925); conditions: filed as negative allosteric modulator
T2 sequence (whole entry): T1 sequence (O94925 whole entry)
Description: Binding affinity to human GLS1 assessed as stabilization of protein by measuring change in melting temperature by protein thermal shift assay

HCT-116 [8] = assay: Antitumor activity against human HCT-116 cells xenografted in BALB/c SPF mouse assessed as tumor growth inhibition at 100 mg/kg, ip administered BID for 21 days; type: functional; conditions: time 21 day
[9] = target: T3, Glutaminase kidney isoform, mitochondrial (Mus musculus, UniProt D3Z7P3); assay: Inhibition of GLS1 in mouse brain assessed as inhibition of glutamate production using glutamine as substrate incubated for 1 hr by coupled assay; type: tissue-based
T3 sequence (D3Z7P3 whole entry): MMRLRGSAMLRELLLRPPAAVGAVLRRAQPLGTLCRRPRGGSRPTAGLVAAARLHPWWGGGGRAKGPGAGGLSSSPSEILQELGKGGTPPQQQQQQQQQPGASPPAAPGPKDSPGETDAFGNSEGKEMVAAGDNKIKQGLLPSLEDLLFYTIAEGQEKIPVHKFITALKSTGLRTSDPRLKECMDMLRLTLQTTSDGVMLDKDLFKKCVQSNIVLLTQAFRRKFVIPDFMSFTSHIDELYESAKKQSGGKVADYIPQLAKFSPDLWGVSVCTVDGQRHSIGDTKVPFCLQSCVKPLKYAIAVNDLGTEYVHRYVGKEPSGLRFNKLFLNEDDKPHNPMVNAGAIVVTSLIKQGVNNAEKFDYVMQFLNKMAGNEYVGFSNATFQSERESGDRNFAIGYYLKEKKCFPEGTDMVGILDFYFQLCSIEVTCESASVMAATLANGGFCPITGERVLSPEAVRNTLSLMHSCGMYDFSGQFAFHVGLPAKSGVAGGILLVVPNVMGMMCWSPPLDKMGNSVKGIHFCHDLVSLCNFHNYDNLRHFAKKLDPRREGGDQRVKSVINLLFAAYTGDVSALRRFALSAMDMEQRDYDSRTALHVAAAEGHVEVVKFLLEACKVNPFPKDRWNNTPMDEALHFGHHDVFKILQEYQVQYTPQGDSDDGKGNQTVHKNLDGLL

[10] = target: T3, Glutaminase kidney isoform, mitochondrial; assay: Inhibition of GLS1 in mouse kidney assessed as inhibition of glutamate production using glutamine as substrate incubated for 1 hr by coupled assay; type: tissue-based
[11] = Metabolic stability in human liver microsomes assessed as parent compound remaining at 10 uM measured after 30 mins by LC-MS/MS analysis; type: ADME, Microsome; conditions: microsomes, 0.5 h, 10 µM
[12] = Metabolic stability in human liver microsomes assessed as parent compound remaining at 10 uM measured after 60 mins by LC-MS/MS analysis; type: ADME, Microsome; conditions: microsomes, 1 h, 10 µM
CT26 = assay: Antiproliferative activity against mouse CT26 cells overexpressing GLS1 assessed as inhibition of cell proliferation measured after 72 hrs by MTT assay; type: functional, cell-based; conditions: CT26, 72 h
H22 = assay: Antiproliferative activity against mouse H22 cells assessed as inhibition of cell proliferation measured after 72 hrs by MTT assay; type: functional, cell-based; conditions: H22, 72 h

Row | SMILES | IC50 (HCT-116 [1]) [nM] | microsomal CLint at 10 µM [2] [µL/min/mg] | half-life at 10 µM ([3]; liver microsomes) [min] | IC50 (MDA-MB-436) [nM] | IC50 [4] [nM] | Kd [5] [nM] | remaining at 2 h, 1 µM [6] [%] | ΔTm [7] [°C] | t1/2 ([3]; microsomes, 10 µM) [min] | TGI (HCT-116 [8]) [%] | IC50 [9] [nM] | IC50 [10] [nM] | Stability [11] [%] | Stability [12] [%] | IC50 (CT26) [nM] | IC50 (H22) [nM]
1 | CO[C@H](C(=O)Nc1nnc(NC2CCN(c3nnc(NC(=O)CCc4cn(-c5ccc(C(F)(F)F)cc5)nn4)s3)CC2)s1)c1ccccc1 | 160 | 5.57 | 312 | 620 | 19.3 | 81 | 98 | 15.2 | – | – | – | – | – | – | – | –
2 | O=C(Cc1cccc(OC(F)(F)F)c1)Nc1ccc(CCCCc2nnc(NC(=O)Cc3ccccn3)s2)nn1 | – | 19.5 | – | 410 | – | – | 85 | – | 91.43 | 50.6 | 20 | 20 | 98 | 89 | 420 | 1340
